Data from PubChem BioAssay AID258 (DTP/NCI, 2004).
Values joined by “and” are separate entries in the source; they are usually repeats but may differ in a detail not shown here. Equal entries are not always repeated. Toxic doses and inconclusive results are not listed.

Tested on: CD2F1 mice, L1210 leukemia sc, survival T/C
Assay: NCI In Vivo Anticancer Drug Screen. Data for tumor model L1210 Leukemia (subcutaneous) in CD2F1 (CDF1) mice
Conditions: endpoint: median survival time, higher = longer survival
Summary of the method: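 Mice with transplanted tumor dosed; survival/tumor size read; T/C vs vehicle controls.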

[1] = dose: 6.0 mg/kg/injection, schedule: Q01DX009 (sc), vehicle: saline

`S=P(N1CC1)(N1CC1)N1CC1` was tested, and the T/C (dose: 1.5 mg/kg/injection, schedule: Q01DX009 (ip), vehicle: water) was 107 % of control, the T/C (dose: 1.5 mg/kg/injection, schedule: Q01DX009 (sc), vehicle: water) was 105 % of control and the T/C (dose: 3.0 mg/kg/injection, schedule: Q01DX009 (ip), vehicle: water) was 105 % of control. For the same compound, the T/C (dose: 3.0 mg/kg/injection, schedule: Q01DX009 (sc), vehicle: saline) was 121 % of control, the T/C (dose: 3.0 mg/kg/injection, schedule: Q01DX009 (sc), vehicle: water) was 101 % of control and the T/C (dose: 6.0 mg/kg/injection, schedule: Q01DX009 (ip), vehicle: water) was 121 % of control. The T/C [1] was 166 % of control and 176 % of control, the T/C (dose: 6.0 mg/kg/injection, schedule: Q01DX009 (sc), vehicle: water) was 122 % of control and the T/C (dose: 24.0 mg/kg/injection, schedule: Q01DX009 (ip), vehicle: water) was 194 % of control. The T/C (dose: 24.0 mg/kg/injection, schedule: Q01DX009 (sc), vehicle: water) was 157 % of control, the T/C (dose: 12.0 micrograms/kg/injection, schedule: Q01DX009 (ip), vehicle: saline) was 100 % of control and the T/C (dose: 12.0 micrograms/kg/injection, schedule: Q01DX009 (sc), vehicle: saline) was 107 % of control. The T/C (dose: 25.0 micrograms/kg/injection, schedule: Q01DX009 (ip), vehicle: saline) was 104 % of control, the T/C (dose: 25.0 micrograms/kg/injection, schedule: Q01DX009 (sc), vehicle: saline) was 98 % of control and the T/C (dose: 50.0 micrograms/kg/injection, schedule: Q01DX009 (ip), vehicle: saline) was 104 % of control. The T/C (dose: 50.0 micrograms/kg/injection, schedule: Q01DX009 (sc), vehicle: saline) was 100 % of control, the T/C (dose: 100.0 micrograms/kg/injection, schedule: Q01DX009 (ip), vehicle: saline) was 100 % of control and the T/C (dose: 100.0 micrograms/kg/injection, schedule: Q01DX009 (sc), vehicle: saline) was 98 % of control. For the same compound, the T/C (dose: 200.0 micrograms/kg/injection, schedule: Q01DX009 (ip), vehicle: saline) was 96 % of control, the T/C (dose: 200.0 micrograms/kg/injection, schedule: Q01DX009 (sc), vehicle: saline) was 102 % of control and the T/C (dose: 400.0 micrograms/kg/injection, schedule: Q01DX009 (ip), vehicle: saline) was 102 % of control. The T/C (dose: 400.0 micrograms/kg/injection, schedule: Q01DX009 (sc), vehicle: saline) was 102 % of control.

In the case of `O=c1[nH]cc(F)c(=O)[nH]1`, the T/C (dose: 2.5 mg/kg/injection, schedule: Q01DX009 (ip), vehicle: saline) is reported as 109 % of control and 94 % of control, the T/C (dose: 5.0 mg/kg/injection, schedule: Q01DX009 (ip), vehicle: saline) is reported as 101 % of control and 106 % of control and the T/C (dose: 6.0 mg/kg/injection, schedule: Q01DX009 (ip), vehicle: saline) is reported as 111 % of control. The T/C [1] was 110 % of control, the T/C (dose: 6.25 mg/kg/injection, schedule: Q01DX009 (ip), vehicle: saline) was 93 % of control and the T/C (dose: 10.0 mg/kg/injection, schedule: Q01DX009 (ip), vehicle: saline) was 108 % of control and 114 % of control and 117 % of control. For the same compound, the T/C (dose: 10.0 mg/kg/injection, schedule: Q01DX009 (sc), vehicle: saline) was 102 % of control, the T/C (dose: 12.5 mg/kg/injection, schedule: Q01DX006 (ip), vehicle: saline) was 105 % of control and the T/C (dose: 12.5 mg/kg/injection, schedule: Q01DX009 (ip), vehicle: saline) was 112 % of control. The T/C (dose: 12.5 mg/kg/injection, schedule: Q02DX005 (ip), vehicle: saline) was 111 % of control, the T/C (dose: 16.0 mg/kg/injection, schedule: Q01DX009 (sc), vehicle: saline) was 150 % of control and the T/C (dose: 20.0 mg/kg/injection, schedule: Q01DX009 (sc), vehicle: saline) was 118 % of control. For the same compound, the T/C (dose: 24.0 mg/kg/injection, schedule: Q01DX009 (ip), vehicle: saline) was 155 % of control, the T/C (dose: 24.0 mg/kg/injection, schedule: Q01DX009 (sc), vehicle: saline) was 152 % of control and 168 % of control and the T/C (dose: 25.0 mg/kg/injection, schedule: Q02DX005 (ip), vehicle: saline) was 112 % of control. The T/C (dose: 25.0 mg/kg/injection, schedule: Q04DX003 (ip), vehicle: saline) was 100 % of control, the T/C (dose: 26.7 mg/kg/injection, schedule: Q01DX009 (sc), vehicle: saline) was 152 % of control and the T/C (dose: 40.0 mg/kg/injection, schedule: Q01DX009 (ip), vehicle: saline) was 104 % of control and 114 % of control and 94 % of control. For the same compound, the T/C (dose: 40.0 mg/kg/injection, schedule: Q01DX009 (sc), vehicle: saline) was 151 % of control and 160 % of control, the T/C (dose: 48.0 mg/kg/injection, schedule: Q01DX009 (ip), vehicle: saline) was 102 % of control and the T/C (dose: 48.0 mg/kg/injection, schedule: Q01DX009 (sc), vehicle: saline) was 117 % of control. For the same compound, the T/C (dose: 50.0 mg/kg/injection, schedule: Q01DX001 (ip), vehicle: saline) was 111 % of control, the T/C (dose: 50.0 mg/kg/injection, schedule: Q01DX009 (ip), vehicle: saline) was 150 % of control and the T/C (dose: 50.0 mg/kg/injection, schedule: Q04DX003 (ip), vehicle: saline) was 100 % of control. The T/C (dose: 60.0 mg/kg/injection, schedule: Q01DX009 (sc), vehicle: saline) was 161 % of control, the T/C (dose: 65.0 mg/kg/injection, schedule: Q01DX Z (sc), vehicle: saline) was 112 % of control and the T/C (dose: 80.0 mg/kg/injection, schedule: Q01DX009 (ip), vehicle: saline) was 103 % of control. For the same compound, the T/C (dose: 96.0 mg/kg/injection, schedule: Q01DX009 (ip), vehicle: saline) was 91 % of control, the T/C (dose: 96.0 mg/kg/injection, schedule: Q01DX009 (sc), vehicle: saline) was 88 % of control and the T/C (dose: 100.0 mg/kg/injection, schedule: Q01DX001 (ip), vehicle: saline) was 122 % of control. The T/C (dose: 100.0 mg/kg/injection, schedule: Q02DX005 (ip), vehicle: saline) was 175 % of control, the T/C (dose: 100.0 mg/kg/injection, schedule: Q04DX003 (ip), vehicle: saline) was 155 % of control and the T/C (dose: 108.0 mg/kg/injection, schedule: Q01DX Z (sc), vehicle: saline) was 112 % of control. For the same compound, the T/C (dose: 180.0 mg/kg/injection, schedule: Q01DX Z (sc), vehicle: saline) was 108 % of control and the T/C (dose: 400.0 mg/kg/injection, schedule: Q01DX001 (ip), vehicle: saline) was 122 % of control.
